Drawing on patent US11834430B2, “Compounds useful as inhibitors of isoprenylcysteine carboxyl methyltransferase” (AGENCY FOR SCIENCE, TECHNOLOGY AND RESEARCH, priority 2017, dated 2023), this text covers IC50 for 39 compounds.

Molecules are shown by their SMILES. “And” between values parts separate entries of the source, which are not always exact repeats. Equal entries are not always repeated.

The target in the first assay is human ICMT (Homo sapiens (Human), UniProt O60725). Kind of assay: ICMT biochemical assay (Methyltransferase-Glo). The conditions noted are these: ICMT membrane extract from Sf-9 cells; 30 min preincubation, 90 min reaction. The method, then: Recombinant human ICMT was prepared by infection of Sf9 cells with a recombinant baculovirus containing the entire open reading frame of the human ICMT cDNA.
Sequence of human ICMT (O60725 whole entry): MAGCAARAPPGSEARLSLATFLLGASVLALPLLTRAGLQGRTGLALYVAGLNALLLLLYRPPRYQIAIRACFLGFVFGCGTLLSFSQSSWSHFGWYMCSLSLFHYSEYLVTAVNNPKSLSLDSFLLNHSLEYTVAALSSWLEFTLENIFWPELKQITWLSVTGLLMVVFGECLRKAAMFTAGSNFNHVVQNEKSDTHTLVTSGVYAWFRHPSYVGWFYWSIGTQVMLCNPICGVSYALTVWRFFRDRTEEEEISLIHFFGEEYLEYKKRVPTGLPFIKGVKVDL
Cells producing ICMT were harvested 66 hours post-infection. The cells are homogenized and resuspended in 5 mM NaHPO4 (pH 7.0), and a cocktail of protease inhibitors. The membrane was pelleted, after removal of nuclei and debris, at 100,000×g for 1 hour. Membranes were resuspended in 5 mM NaHPO4 (pH 7.0) with 5 mM EDTA at 10-12 mg/ml. The suspension was stored at −80° C. in multiple aliquots.
An ICMT enzymatic assay was developed using Promega's Methyltransferase-GloTMreagents. In the assay, ICMT catalyzes the methylation of the N-Acetyl-S-farnesyl-L-cysteine by transferring a methyl group from SAM to the farnesylated cysteine and further converts the SAM to SAH. The methyltransferase activity is measured based on the amount of SAH produced from the reaction through the use of coupling enzymes that convert the SAH to ATP. The MTase-Glo detection solution then catalyzes the formation of light from ATP.
A final concentration of 2.0 μM and 20 μM of SAM and peptide were added and further incubated for 90 minutes at room temperature before adding the MTase Glo and detection reagent. Reaction signals were detected using microplate readers on luminescent mode (Satire Tecan). The IC50 was determined by nonlinear regression, using GraphPad Prism version, 5.03.
As usually defined, the IC50 is the point on the concentration scale where inhibition reaches its midpoint. `N#Cc1ccc(OCCOc2cccc(-n3ccnc3C3CC3)c2)c(N)c1` [Compound 52, 3-amino-4-(2-(3-(2-cyclopropyl-1H-imidazol-1-yl)phenoxy)ethoxy)benzonitrile] registered an IC50 of 3.6 nM.
On to `CC(COc1cccc(-n2ccnc2C2CC2)c1)Oc1ccc(C#N)cc1F` (stereo not drawn) [Compound 28, 4-((1-(3-(2-cyclopropyl-1H-imidazol-1-yl)phenoxy)propan-2-yl)oxy)-3-fluorobenzonitrile], for which half-maximal inhibition (IC50) required 1.6 nM.
Still for that read-out and setting: for `COc1cc(C#N)ccc1OCCOc1cccc(-c2ccnn2C)c1` [Compound 15, 3-methoxy-4-(2-(3-(1-methyl-1H-pyrazol-5-yl)phenoxy)ethoxy)benzonitrile] the value was 1.1 nM and 0.9 nM.
Still for that read-out and setting: for `COc1cc(C#N)ccc1OC(C)COc1cccc(-n2ccnc2C)c1` (stereo not drawn) [Compound 29, 3-methoxy-4-((1-(3-(2-methyl-1H-imidazol-1-yl)phenoxy)propan-2-yl)oxy)benzonitrile] the value was 0.08 nM.
On to `Fc1cc(Cl)ccc1OCCOc1cccc(-n2ccnc2C2CC2)c1` [Compound 50, 1-(3-(2-(4-chloro-2-fluorophenoxy)ethoxy)phenyl)-2-cyclopropyl-1H-imidazole], for which the IC50 was 12 nM.
`Cn1nccc1-c1cc(OCCOc2ccc(Br)cc2F)ccn1` [Compound 121, 4-(2-(4-bromo-2-fluorophenoxy)ethoxy)-2-(1-methyl-1H-pyrazol-5-yl)pyridine] had an IC50 of 70 nM.
In turn, `Cn1nccc1-c1cc(OCCOc2ncc(C#N)cc2F)ccc1F` [Compound 107, 5-fluoro-6-(2-(4-fluoro-3-(1-methyl-1H-pyrazol-5-yl)phenoxy)ethoxy)nicotinonitrile] displayed an IC50 of 150 nM.
The same measure, in the same setting: for `Cc1nccn1-c1cccc(OCCOc2ncc(C#N)cc2F)c1` [Compound 74, 5-fluoro-6-(2-(3-(2-methyl-1H-imidazol-1-yl)phenoxy)ethoxy)nicotinonitrile] the value was 65 nM; for `Cc1ccc(OCCOc2cccc(-n3ccnc3C)c2)c(C#N)c1` [Compound 13, 5-methyl-2-(2-(3-(2-methyl-1H-imidazol-1-yl)phenoxy)ethoxy)benzonitrile], 11 nM.
The same measure, in the same setting: for `N#Cc1ccc(OCCOc2cccc(-c3cnoc3)c2)c(F)c1` [Compound 84, 3-fluoro-4-(2-(3-(isoxazol-4-yl)phenoxy)ethoxy)benzonitrile] the value was 28 nM; for `COc1cc(C#N)ccc1OC(C)COc1cccc(-c2ccnn2C)c1` (stereo not drawn) [Compound 31, 3-methoxy-4-((1-(3-(1-methyl-1H-pyrazol-5-yl)phenoxy)propan-2-yl)oxy)benzonitrile], 1.2 nM; for `C[C@@H](COc1cccc(-n2ccnc2C2CC2)c1)Oc1ccc(C#N)cc1F` [Compound 42, (S)-4-((1-(3-(2-cyclopropyl-1H-imidazol-1-yl)phenoxy)propan-2-yl)oxy)-3-fluorobenzonitrile], 12 nM.
Same read-out and setting: next, `Cc1nccn1-c1cccc(OCC(C)Oc2ccc(C#N)cc2F)c1` (stereo not drawn) [Compound 25, 3-fluoro-4-((1-(3-(2-methyl-1H-imidazol-1-yl)phenoxy)propan-2-yl)oxy)benzonitrile]: 23 nM; `Cc1nccn1-c1cc(OCCOc2ccc(C#N)cn2)ccc1F` [Compound 109, 6-(2-(4-fluoro-3-(2-methyl-1H-imidazol-1-yl)phenoxy)ethoxy)nicotinonitrile]: 170 nM; `Cc1nccn1-c1cccc(OCCOc2ccc(C#N)nc2)c1` [Compound 4, 5-(2-(3-(2-methyl-1H-imidazol-1-yl)phenoxy)ethoxy)picolinonitrile]: 260 nM and 220 nM and 390 nM.
As to `N#Cc1cnc(OCCOc2cccc(-n3ccnc3C3CC3)c2)c(F)c1` [Compound 83, 6-(2-(3-(2-cyclopropyl-1H-imidazol-1-yl)phenoxy)ethoxy)-5-fluoronicotinonitrile], the IC50 stood at 3.7 nM.
Same read-out and setting: next, `Cc1nccn1-c1cccc(O[C@@H](C)COc2ccc(C#N)cc2F)c1` [Compound 35, (S)-3-fluoro-4-(2-(3-(2-methyl-1H-imidazol-1-yl)phenoxy)propoxy)benzonitrile]: 3.6 nM; `Cc1nccn1-c1cc(OCCOc2ccc(C#N)cc2)ccn1` [Compound 85, 4-(2-((2-(2-methyl-1H-imidazol-1-yl)pyridin-4-yl)oxy)ethoxy)benzonitrile]: 15 nM; `Cc1nccn1-c1cccc(OCCOc2ccc(Cl)cc2)c1` [Compound 112, 1-(3-(2-(4-chlorophenoxy)ethoxy)phenyl)-2-methyl-1H-imidazole]: 250 nM.
Still for that read-out and setting: next, `Cc1nccn1-c1cccc(OC[C@H](C)Oc2ccc(C#N)cc2Cl)c1` [Compound 56, (S)-3-chloro-4-((1-(3-(2-methyl-1H-imidazol-1-yl)phenoxy)propan-2-yl)oxy)benzonitrile]: 0.15 nM; `Cc1nccn1-c1cccc(OCCOc2ccc(Cl)cc2F)c1` [Compound 102, 1-(3-(2-(4-chloro-2-fluorophenoxy)ethoxy)phenyl)-2-methyl-1H-imidazole]: 68 nM.
Same read-out and setting: next, `Cc1nccn1-c1cccc(OC(C)C(C)Oc2ccc(C#N)cc2F)c1` (stereo not drawn) [Compound 63, 3-fluoro-4-(3-(3-(2-methyl-1H-imidazol-1-yl)phenoxy)butan-2-yloxy)benzonitrile]: 18 nM and 6 nM; `Cn1nccc1-c1cc(OCCOc2ccc(C#N)cc2Cl)ccn1` [Compound 100, 3-chloro-4-(2-((2-(1-methyl-1H-pyrazol-5-yl)pyridin-4-yl)oxy)ethoxy)benzonitrile]: 1.8 nM.
Turning to `N#Cc1ccc(OCCOc2cccc(-c3cncs3)c2)c(F)c1` [Compound 12, 3-fluoro-4-(2-(3-(thiazol-5-yl)phenoxy)ethoxy)benzonitrile], the IC50 was 210 nM.
As to `Cn1nccc1-c1cc(OCCOc2ccc(Cl)cc2C#N)ccn1` [Compound 98, 5-chloro-2-(2-((2-(1-methyl-1H-pyrazol-5-yl)pyridin-4-yl)oxy)ethoxy)benzonitrile], half-maximal inhibition (IC50) required 10 nM.
`Cn1nccc1-c1cccc(OCCOc2ccc(C#N)cc2)c1` [Compound 57, 4-(2-(3-(1-methyl-1H-pyrazol-5-yl)phenoxy)ethoxy)benzonitrile]: the midpoint of inhibition, the IC50, lay at 9 nM.
Still for that read-out and setting: for `Cc1cc(F)ccc1OCCOc1cccc(-c2ccnn2C)c1` [Compound 27, 5-(3-(2-(4-fluoro-2-methylphenoxy)ethoxy)phenyl)-1-methyl-1H-pyrazole] the value was 290 nM; for `N#Cc1ccc(OCCOc2ccnc(-n3ccnc3C3CC3)c2)cc1` [Compound 89, 4-(2-((2-(2-cyclopropyl-1H-imidazol-1-yl)pyridin-4-yl)oxy)ethoxy)benzonitrile], 2.8 nM.
On the same count and under the same terms, next, `C#Cc1ccc(OCCOc2cccc(-n3ccnc3C)c2)cc1` [Compound 26, 1-(3-(2-(4-ethynylphenoxy)ethoxy)phenyl)-2-methyl-1H-imidazole]: 69 nM; `N#Cc1ccc(OCCOc2cccc(-n3cnnc3)c2)cc1` [Compound 21, 4-(2-(3-(4H-1,2,4-triazol-4-yl)phenoxy)ethoxy)benzonitrile]: 298 nM.
On the same count and under the same terms, for `Cn1nccc1-c1cc(F)cc(OCCOc2ccc(C#N)cc2F)c1` [Compound 105, 3-fluoro-4-(2-(3-fluoro-5-(1-methyl-1H-pyrazol-5-yl)phenoxy)ethoxy)benzonitrile] the value was 6 nM.
Take `COc1cc(C#N)ccc1O[C@H](C)COc1cccc(-c2ccnn2C)c1` [Compound 48, (R)-3-methoxy-4-((1-(3-(1-methyl-1H-pyrazol-5-yl)phenoxy)propan-2-yl)oxy)benzonitrile]: half-maximal inhibition (IC50) was put at 0.64 nM.
As to `Cc1nccn1-c1cc(OCCOc2ccc(Cl)cc2)ccn1` [Compound 115, 4-(2-(4-chlorophenoxy)ethoxy)-2-(2-methyl-1H-imidazol-1-yl)pyridine], the IC50 amounted to 160 nM.
Same read-out and setting: for `COc1cc(C#N)ccc1OCCOc1cccc(-n2ccnc2C2CC2)c1` [Compound 19, 4-(2-(3-(2-cyclopropyl-1H-imidazol-1-yl)phenoxy)ethoxy)-3-methoxybenzonitrile] the value was 4.5 nM; for `Cc1nccn1-c1cccc(OC(C)COc2ccc(C#N)cc2F)c1` (stereo not drawn) [Compound 23, 3-fluoro-4-(2-(3-(2-methyl-1H-imidazol-1-yl)phenoxy)propoxy)benzonitrile], 61 nM.
`Cc1ccc(OCCOc2cccc(-n3ccnc3C)c2)c(F)c1` [Compound 58, 1-(3-(2-(2-fluoro-4-methylphenoxy)ethoxy)phenyl)-2-methyl-1H-imidazole] came in with an IC50 of 60 nM.
`Cn1nccc1-c1cc(F)cc(OCCOc2ccc(C#N)cc2)c1` [Compound 94, 4-(2-(3-fluoro-5-(1-methyl-1H-pyrazol-5-yl)phenoxy)ethoxy)benzonitrile] came in with an IC50 of 1.6 nM.

Staying with this assay, now noted: unit (nM).
In the case of `COc1cc(C#N)ccc1O[C@H](C)COc1cccc(-n2ccnc2C)c1` [Compound 77, (R)-3-methoxy-4-((1-(3-(2-methyl-1H-imidazol-1-yl)phenoxy)propan-2-yl)oxy)benzonitrile], the IC50 was 0.7 nM.
The same measure, in the same setting: next, `N#Cc1ccc(OCCOc2ccnc(-n3ccnc3C3CC3)c2)c(F)c1` [Compound 76, 4-(2-((2-(2-cyclopropyl-1H-imidazol-1-yl)pyridin-4-yl)oxy)ethoxy)-3-fluorobenzonitrile]: 0.39 nM.
